Assay results reported in ChEMBL document CHEMBL1132282, “Discovery of novel non-peptide CCR1 receptor antagonists” (J Med Chem, 1999).

These molecules were tested against T1, C-C chemokine receptor type 1 (Homo sapiens) (UniProt P32246) (assay: Inhibition of [125I]-MIP-1 alpha binding to recombinant human C-C chemokine receptor type 1 expressed in HEK293 cells at 3 uM concentration).
T1 sequence (whole entry): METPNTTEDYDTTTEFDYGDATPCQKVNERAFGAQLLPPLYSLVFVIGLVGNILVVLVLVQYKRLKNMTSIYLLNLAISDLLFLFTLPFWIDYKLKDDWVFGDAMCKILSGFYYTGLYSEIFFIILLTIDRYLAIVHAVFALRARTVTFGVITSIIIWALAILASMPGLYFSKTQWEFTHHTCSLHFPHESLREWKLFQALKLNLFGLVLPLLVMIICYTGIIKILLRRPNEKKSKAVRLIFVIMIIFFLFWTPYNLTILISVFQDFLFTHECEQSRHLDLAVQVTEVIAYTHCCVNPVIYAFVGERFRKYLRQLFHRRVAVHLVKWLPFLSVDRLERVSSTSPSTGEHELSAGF
Assay type: cell-based

inhibition [%] | Structure (SMILES)
19 | N#CC1(CCCN2CCC(c3ccccc3)CC2)c2ccccc2CSc2ccccc21 (centres undefined)
0 | N#CC1(CCCN2CCC(C(O)(c3ccccc3)c3ccccc3)CC2)c2ccccc2CSc2ccccc21 (centres undefined)
0 | N#CC1(c2ccccc2)CCN(CCCC2(C#N)c3ccccc3CSc3ccccc32)CC1 (centres undefined)

Structure (SMILES) | inhibition [%]
CC(=O)C1(c2ccccc2)CCN(CCCC2(C#N)c3ccccc3CSc3ccccc32)CC1 (centres undefined) | 0
